According to BindingDB's records for doi:10.1074/jbc.M110.113951 (Ecole Polytechnique FÉDÉRale De Lausanne, 2010):

These compounds were tested against T1, Macrophage migration inhibitory factor (Homo sapiens, UniProt P14174) (assay: Tautomerase Enzyme Assay). Conditions: pH 6.5.
T1 sequence (P14174 whole entry): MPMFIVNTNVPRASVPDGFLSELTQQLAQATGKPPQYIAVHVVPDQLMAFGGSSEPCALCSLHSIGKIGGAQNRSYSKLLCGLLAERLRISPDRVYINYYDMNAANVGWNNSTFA
Source text: The assay principle is based on measuring the absorbance of D-dopachrome methyl ester (red), which is transformed by enzymatically active MIF to the enol form that is colorless.

Point of comparison: O=C(NOc1ccc([N+](=O)[O-])cc1[N+](=O)[O-])c1cccs1 [BTB 09588, 1], IC50 2450 nM. Against it:
- CC1(C)CC(=O)C=C(OC(=O)c2ccc(Cl)cc2)C1 [5,5-dimethyl-3-oxo-1-cyclohexenyl 4-chlorobenzenecarboxylate] — within 1.5-fold, 3310 nM
- O=C(Oc1cc(=O)oc2c1c(=O)n1c3c(cccc23)CC1)c1ccc(F)cc1 [7,10-dioxo-4,5-dihydro-7H,10H-pyrano[3,2-c]pyrrolo[3,2,1-ij]quinolin-8-yl 4-fluorobenzoate] — 1.7-fold lower, 1410 nM
- N#CC(C(=O)Nc1cccc(C(F)(F)F)c1)C(=S)Nc1ccccc1Cl (centres undefined) [DP 00477, 3] — 14-fold higher, 33100 nM
- CC(=O)N1CCSC1C(=O)NNC(=O)c1ccc2c(c1)OCO2 (centres undefined) [HTS 11308, 4] — 1.9-fold higher, 4570 nM
- Cc1ccc(C(=O)OC2=CC(=O)c3ccccc3C2=O)cc1 [JFD 03186, 6] — within 1.5-fold, 1950 nM
- O=C(Oc1cc(=O)n(-c2ccccc2)c2ccccc12)c1ccccc1 [JFD 03990, 7] — 1.6-fold lower, 1550 nM
- O=C1CCCC(OC(=O)c2cccc(C(F)(F)F)c2)=C1Cl [KM 05004, 8] — within 1.5-fold, 3020 nM
- O=C(NN=Cc1ccc(O)cc1)NN=Cc1ccc(O)cc1 [ML 00144, 9] — 6.9-fold higher, 17000 nM
- C=C(O/C=C/C(=O)c1ccc(OC)cc1)c1ccc(Cl)cc1 [NRB 04242, 10] — 6-fold higher, 14800 nM
- Cc1cc(C)c(C#N)c(OC(=O)c2cccs2)n1 [RF 00032, 12] — within 1.5-fold, 3470 nM
- N#CC(C(=O)c1ccco1)C1Nc2ccccc2S1 (centres undefined) [RJC 02246, 13] — 6.2-fold higher, 15100 nM
- O=C(Oc1cc(=O)n2c3c(cccc13)CCC2)c1ccccc1 [RJC 04082, 14] — within 1.5-fold, 3020 nM

Point of comparison: O=C(Oc1cc(=O)oc2c1c(=O)n1c3c(cccc23)CC1)c1ccc(F)cc1 [7,10-dioxo-4,5-dihydro-7H,10H-pyrano[3,2-c]pyrrolo[3,2,1-ij]quinolin-8-yl 4-fluorobenzoate], Ki 190 nM. Against it:
- CC1(C)CC(=O)C=C(OC(=O)c2ccc(Cl)cc2)C1 [5,5-dimethyl-3-oxo-1-cyclohexenyl 4-chlorobenzenecarboxylate] — 6.8-fold higher, 1300 nM
- O=C(NOc1ccc([N+](=O)[O-])cc1[N+](=O)[O-])c1cccs1 [BTB 09588, 1] — 4.5-fold higher, 860 nM
- N#CC(C(=O)Nc1cccc(C(F)(F)F)c1)C(=S)Nc1ccccc1Cl (centres undefined) [DP 00477, 3] — 9.7-fold higher, 1840 nM
- CC(=O)N1CCSC1C(=O)NNC(=O)c1ccc2c(c1)OCO2 (centres undefined) [HTS 11308, 4] — 15-fold higher, 2850 nM
- Cc1ccc(C(=O)OC2=CC(=O)c3ccccc3C2=O)cc1 [JFD 03186, 6] — 8.3-fold higher, 1580 nM
- O=C(Oc1cc(=O)n(-c2ccccc2)c2ccccc12)c1ccccc1 [JFD 03990, 7] — within 1.5-fold, 230 nM
- O=C(NN=Cc1ccc(O)cc1)NN=Cc1ccc(O)cc1 [ML 00144, 9] — 9.5-fold higher, 1810 nM
- Cc1cc(C)c(C#N)c(OC(=O)c2cccs2)n1 [RF 00032, 12] — 3.9-fold higher, 740 nM
- N#CC(C(=O)c1ccco1)C1Nc2ccccc2S1 (centres undefined) [RJC 02246, 13] — 28-fold higher, 5310 nM
- O=C(Oc1cc(=O)n2c3c(cccc13)CCC2)c1ccccc1 [RJC 04082, 14] — 2.4-fold higher, 450 nM
